In patent US20240351995A1, “(3-PIRYDYL)-QUINAZOLINE” (BASF SE, priority 2021, published 2024):

Tests used:
[1] = tested on: Corynespora cassiicola G413A mutant; assay: Microtest: activity against Corynespora cassiicola G413A mutant in the microtiterplate test; format: cell-based; settings: 31 ppm, relative to active compound-free control (100%)
Excerpt: (§1) The active compounds were formulated separately as a stock solution having a concentration of 10000 ppm in dimethyl sulfoxide.
(§2) The stock solutions were mixed according to the ratio, pipetted onto a micro titer plate (MTP) and diluted with water to the stated concentrations.
(§3) The measured parameters were compared to the growth of the active compound-free control variant (100%) and the fungus-free blank value to determine the relative growth in % of the pathogens in the respective active compounds.
A spore suspension of Corynespora cassiicola in an aqueous biomalt or yeast-bactopeptone-sodiumacetate solution was then added.

Cercospora zeae maydis = assay: Microtest: activity against Cercospora zeae maydis in the microtiterplate test; format: cell-based; settings: 31 ppm; relative to active compound-free control (100%)
Excerpt: as §1, §2, §3
A spore suspension of Cercospora zeae maydis in an aqueous biomalt or yeast-bactopeptone-sodiumacetate solution was then added.

Structure (SMILES) | growth of the pathogen (relative growth in %) [1] [%] | growth of the pathogen (relative growth in %) (Cercospora zeae maydis) [%]
CCC1(C)N=C(c2cnc(C(F)F)c(C)c2)c2cccc(F)c2N1 (racemic) [Ex-25] | 19 | –
Cc1cc(C2=NC(C)(CC(C)C)Nc3c(F)cccc32)cnc1C(F)F (racemic) [Ex-26] | 19 | –
CCC1(C)N=C(c2cnc(C(F)F)c(C)c2)c2cccc(F)c2N1C (racemic) [Ex-29] | 19 | 17
Cc1cc(C2=NC(C)(CC(C)C)N(C)c3c(F)cccc32)cnc1C(F)F (racemic) [Ex-32] | 19 | –
Cc1cc(C2=NC(C)(CC(C)C)N(C#N)c3c(F)cccc32)cnc1C(F)F (racemic) [Ex-41] | 19 | 17
Cc1cc(C2=NC(C)(C3CC3)N(C)c3c(F)cccc32)cnc1C(F)F (racemic) [Ex-56] | 19 | 17
Cc1cc(C2=NC(C)(c3ccccc3)N(C)c3c(F)cccc32)cnc1C(F)F (racemic) [Ex-60] | 19 | 17
Cc1cc(C2=NC(C)(c3ccccn3)N(C)c3c(F)cccc32)cnc1C(F)F (racemic) [Ex-61] | 19 | 17
Cc1cc(C2=NC(C)(C)Nc3c(F)cccc32)cnc1C(F)F [Ex-5] | 19 | 17
Cc1cc(C2=NC(C)(C)N(C)c3c(F)cccc32)cnc1C(F)F [Ex-6] | 19 | 17
CCN1c2c(F)cccc2C(c2cnc(C(F)F)c(C)c2)=NC1(C)C [Ex-7] | 19 | –
Cc1cc(C2=NC(C)(C)Nc3c(Cl)cccc32)cnc1C(F)F [Ex-8] | 19 | –
Cc1cc(C2=NC(C)(C)N(C)c3c(Cl)cccc32)cnc1C(F)F [Ex-9] | 19 | 17
CCCN1c2c(F)cccc2C(c2cnc(C(F)F)c(C)c2)=NC1(C)C [Ex-13] | 19 | –
CCCCN1c2c(F)cccc2C(c2cnc(C(F)F)c(C)c2)=NC1(C)C [Ex-14] | 19 | –
Cc1cc(C2=NC(C)(C)N(CC(C)C)c3c(F)cccc32)cnc1C(F)F [Ex-15] | 19 | –

Structure (SMILES) | growth of the pathogen (relative growth in %) [1] [%] | growth of the pathogen (relative growth in %) (Cercospora zeae maydis) [%]
CC(=O)N1c2c(F)cccc2C(c2cnc(C(F)F)c(C)c2)=NC1(C)C [Ex-20] | 19 | –
Cc1cc(C2=NC(C)(C)N(C)c3c(Cl)cccc32)cnc1C [Ex-22] | 19 | 17
Cc1cc(C2=NC(C)(C)Nc3c(Cl)cccc32)cnc1C [Ex-23] | 19 | –
Cc1cc(C2=NC(C)(C)N(C#N)c3ccccc32)cnc1C(F)F [Ex-27] | 19 | –
Cc1cc(C2=NC(C)(C)N(C#N)c3c(Cl)cccc32)cnc1C [Ex-28] | 19 | –
Cc1ccc2c(c1)NC(C)(C)N=C2c1cnc(C(F)F)c(C)c1 [Ex-31] | 19 | –
Cc1cc(C2=NC(C)(C)N(C#N)c3ccccc32)cnc1C [Ex-35] | 19 | –
Cc1cc(C2=NC(C)(C)N(C)c3cc(F)ccc32)cnc1C(F)F [Ex-36] | 19 | –
Cc1cc(C2=NC(C)(C)N(C)c3cc(Cl)ccc32)cnc1C(F)F [Ex-38] | 19 | 17
Cc1ccc2c(c1)N(C)C(C)(C)N=C2c1cnc(C(F)F)c(C)c1 [Ex-40] | 19 | –
Cc1cc(C2=NC(C)(C)N(C)c3c(Br)cccc32)cnc1C(F)F [Ex-50] | 19 | 17
Cc1cc(C2=NC(C)(C)N(C)c3c(C)cccc32)cnc1C(F)F [Ex-53] | 19 | 17
Cc1cc(C2=NC(C)(C)N(C#N)c3cc(F)ccc32)cnc1C(F)F [Ex-55] | 19 | –
C#Cc1cccc2c1NC(C)(C)N=C2c1cnc(C(F)F)c(C)c1 [Ex-81] | – | 17
Cc1cc(C2=NC(C)(C)N(C)c3c2ccc(F)c3F)cnc1C(F)F [Ex-91] | 19 | 17
